“Also recorded” adds a separate entry of the source. Strand notation (5' to 3'): a small letter for the sugar, then the base; units joined by * are phosphorothioate-linked, units joined directly phosphodiester-linked; [ ] holds rarer units or linkages, { } end groups; capitals alone tell only the bases. e = 2'-O-(2-methoxyethyl) (MOE); [5mC] = 5-methylcytosine; d = 2'-deoxy (DNA)
Columns and labels:
RANKL mRNA [1] = assay: Antisense inhibition of RANKL mRNA expression followed by PTH treatment in primary mouse osteoblast cells: dose response (Table 8); format: cell-based; details: 63 nM oligonucleotide 24 h, 10 nM PTH last 2 h, relative to PTH alone
RANKL mRNA [2] = assay: as above; format: cell-based; details: for % RANKL mRNA inhibition: 10 nM PTH last 2 h, relative to PTH alone
Protocol: Primary mouse osteoblasts were prepared from calvaria of neonatal mice purchased from Charles River Laboratories. […] Cells were not passaged. Cells were seeded onto 6-well plates (Falcon-Primaria #353846) at a density of 50,000 cells/well for use in antisense oligonucleotide transfection.
In a further embodiment of this invention, the effect of RANKL antisense oligonucleotides and PTH treatment on the expression of RANKL was determined in primary osteoblast cells isolated from mice skull caps.
ISIS 143624 ([…], SEQ ID NO: 348) was used as a control oligonucleotide. […] All cytidine residues are 5-methylcytidines.
Primary osteoblastic cells were transfected for 24 hours with either Isis 180819 (SEQ ID NO: 185) or the control oligo ISIS 143624 (SEQ ID NO: 348) at a dose of […], 125 nM, 250 nM, or 500 nM by the methods described herein but using the transfection reagent FuGENE 6 (Roche Applied Science, Indianapolis, Ind.). During the last 2 hours of oligonucleotide transfection, the cells were treated with 10 nM PTH. The RNA was then harvested and the expression levels of […] were measured by the methods described herein. The results are expressed as percent inhibition relative to PTH treatment alone and represent the average from three experiments.

mouse RANKL mRNA [3] = assay: Antisense inhibition of mouse RANKL mRNA levels in C2C12 cells, quantitative real-time PCR (Table 2); format: cell-based; parameters: concentration or dose not given beside the values; details: averages from three experiments
Procedure, shortened: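 C2C12 cells seeded at ~10,000 cells/cm^2, treated with antisense oligonucleotides (all C as 5-methylcytidine) in triplicate and harvested 16-24 h later. Mouse RANKL mRNA quantified by real-time RT-PCR with a FAM/TAMRA probe, with mouse GAPDH (JOE/TAMRA probe) as reference.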

mouse RANKL mRNA [4] = assay: Antisense inhibition of mouse RANKL mRNA in C2C12 cells: dose response (Table 5); format: cell-based; details: relative to untreated control
Protocol: Cells were seeded into 24-well plates (Falcon-353047 at a density of ˜10,000 cells/cm^2 for use in antisense oligonucleotide transfection.
Cells are treated and data are obtained in triplicate. […] Cells were harvested 16-24 hours after oligonucleotide treatment.
Probes and primers to mouse RANKL were designed to hybridize to a mouse RANKL sequence, using published sequence information (GenBank accession number AF013170.1, incorporated herein as SEQ ID NO:ll). For mouse RANKL the PCR primers were: • forward primer: […] (SEQ ID NO:12) • reverse primer: […] (SEQ ID NO: 13) and • the PCR probe was: FAM-[…]-TAMRA (SEQ ID NO: 14) where FAM is the fluorescent reporter dye and TAMRA is the quencher dye. For mouse GAPDH the PCR primers were: • forward primer: […](SEQ ID NO:15) • reverse primer: […](SEQ ID NO:16) and the • PCR probe was: 5′ JOE-[…]-TAMRA 3′ (SEQ ID NO: 17) where JOE is the fluorescent reporter dye and TAMRA is the quencher dye.
In accordance with the present invention, a subset of the antisense oligonucleotides in Example 16 was further investigated in dose-response studies. The oligonucleotides used in this investigation were ISIS 180812 (SEQ ID NO: 178), ISIS 180814 (SEQ ID NO: 180), ISIS 180819 (SEQ ID NO: 185), ISIS 180828 (SEQ ID NO: 194) and the control oligonucleotide ISIS 101757 ([…], SEQ ID NO: 355). […] All cytidine residues are 5-methylcytidines.
C2C12 cells were treated with the oligonucleotides at 10, 50, 75, 100, and 150 nM as described in other examples herein. […] The results are expressed as percent inhibition relative to the untreated control. The data, shown in Table 5, are averages from two experiments and illustrate the oligonucleotides of the present invention are able to downregulate RANKL mRNA expression in a dose-dependent manner.

RANKL mRNA [5] = assay: Antisense inhibition of RANKL mRNA in proximal tibia and calvaria of mice after PTH infusion: dose response and delivery method (Table 9); format: in vivo, mouse
Protocol: In accordance with the present invention, the levels of RANKL in the proximal tibia and calvaria in mice were measured following antisense oligonucleotide treatment and PTH infusion.
Female Swiss-Webster mice (5-8 wks old) fed a low-calcium diet were treated with ISIS 180819 (SEQ ID NO: 185) by subcutaneous injection at a dose of either 30 mg/kg or 50 mg/kg or intraperitoneal injection at a dose of either 15 mg/kg, 30 mg/kg or 50 mg/kg. After 2 weeks of daily treatment, the mice were infused with PTH at a dose of 1 ug/100 g/6 hr. After 24 hours of PTH infusion (total PTH delivery of 4 ug/100 g), the mice were sacrificed. The proximal tibia and calvaria were isolated and the level of RANKL mRNA expression was determined in each using two different primer-probe sets to confirm the results. The first primer-probe set was #1207, consisting of […] (forward primer, SEQ ID NO: 349), […] (reverse primer, SEQ ID NO: 350) and […] (probe, SEQ ID NO: 351). The second primer-probe set was #1015, consisting of […] (forward primer, SEQ ID NO: 352), […] (reverse primer, SEQ ID NO: 353) and […] (probe, SEQ ID NO: 354). The results are expressed as percent inhibition relative to PTH treatment alone and represent the average of eight mice per group.

RANKL mRNA [6] = assay: RANKL mRNA % inhibition after PTH infusion in mice treated with RANKL antisense oligonucleotides for two weeks (Table 10); format: in vivo, mouse; details: then 24 h PTH infusion, normalized to PTH alone
Protocol: (§1) Female Swiss-Webster (5-8 wks old) mice fed a low-calcium diet were dosed subcutaneously for two weeks with either the oligonucleotides ISIS 180819 (SEQ ID NO: 185) or 180814 (SEQ ID NO: 180) at concentrations of 5 mg/kg, 15 mg/kg, 30 mg/kg, or 40 mg/kg. A control group of mice were treated with calcitonin (400 ng) plus PTH (1 ug/100 g/6 hr), PTH alone (1 ug/100 g/6 hr) or saline. Treatment with oligonucleotides was followed with infusion of PTH by subcutaneously implanted mini-pumps at a dose of 1 ug/100 g/6 hr. After 24 hours of PTH infusion (total PTH delivery of 4 ug/100 g), the mice were sacrificed and the serum calcium concentration was measured with the Sigma Diagnostics Calcium Kit (Sigma-Aldrich). The data, summarized in Table 10 are averages from eight mice. Percent mRNA inhibition is normalized to PTH alone treatment.

[7] = Serum calcium concentration 24 hours after PTH infusion in mice treated with RANKL antisense oligonucleotides (Table 10); format: in vivo, mouse; details: for serum calcium: then 24 h PTH infusion
Protocol: In accordance with the present invention, the effect of antisense oligonucleotide inhibition on PTH-induced serum calcium concentration increase was measured in mice. The serum calcium concentration in mice was measured as a function of antisense oligonucleotide dose. Calcitonin, a known bone antiresorptive agent, was used as a control for antiresorptive activity.
as §1

[8] = 5 mg/kg subcutaneously two weeks
[9] = 15 mg/kg subcutaneously two weeks
[10] = 30 mg/kg subcutaneously two weeks

Substance: 143624 (antisense eT*eG*e[5mC]*eT*e[5mC]*dA*dG*d[5mC]*dG*dA*dG*dT*dG*dT*dG*e[5mC]*e[5mC]*eA*eG*e[5mC]) [compound 143624]
- % RANKL mRNA inhibition (RANKL mRNA [1]): 4%
- % RANKL mRNA inhibition (RANKL mRNA [2]; 125 nM oligonucleotide 24 h): 3%
- % RANKL mRNA inhibition (RANKL mRNA [2]; 250 nM oligonucleotide 24 h): 0%
- % RANKL mRNA inhibition (RANKL mRNA [2]; 500 nM oligonucleotide 24 h): 9%

Substance: 180819 (antisense eT*eG*e[5mC]*eA*eG*dG*dT*d[5mC]*d[5mC]*d[5mC]*dA*dG*d[5mC]*dG*d[5mC]*eA*eA*eT*eG*eT) [compound 180819]
- % INHIB (inhibition of mouse RANKL mRNA levels) (mouse RANKL mRNA [3]): 66%
- % Inhibition of RANKL mRNA (mouse RANKL mRNA [4]; 10 nM oligonucleotide): 41%
- % Inhibition of RANKL mRNA (mouse RANKL mRNA [4]; 50 nM oligonucleotide): 39%
- % Inhibition of RANKL mRNA (mouse RANKL mRNA [4]; 75 nM oligonucleotide): 57%
- % Inhibition of RANKL mRNA (mouse RANKL mRNA [4]; 100 nM oligonucleotide): 71%
- % Inhibition of RANKL mRNA (mouse RANKL mRNA [4]; 150 nM oligonucleotide): 75%
- % RANKL mRNA inhibition (RANKL mRNA [1]): 19%
- % RANKL mRNA inhibition (RANKL mRNA [2]; 125 nM oligonucleotide 24 h): 39%
- % RANKL mRNA inhibition (RANKL mRNA [2]; 250 nM oligonucleotide 24 h): 71%
- % RANKL mRNA inhibition (RANKL mRNA [2]; 500 nM oligonucleotide 24 h): 85%

Substance: tgcaggtcccagcgcaatgt (antisense eT*eG*e[5mC]*eA*eG*dG*dT*d[5mC]*d[5mC]*d[5mC]*dA*dG*d[5mC]*dG*d[5mC]*eA*eA*eT*eG*eT) [ISIS 180819, 2′-MOE gapmer targeted to mouse RANKL]
- % Inhibition of RANKL (RANKL mRNA [5]; intraperitoneal injection 15 mg/kg daily 2 weeks, proximal tibia, primer-probe set 1015): 2%
- % Inhibition of RANKL (RANKL mRNA [5]; intraperitoneal injection 15 mg/kg daily 2 weeks, proximal tibia, primer-probe set 1207): 0%
- % Inhibition of RANKL (RANKL mRNA [5]; intraperitoneal injection 30 mg/kg daily 2 weeks, calvaria, primer-probe set 1015): 39%
- % Inhibition of RANKL (RANKL mRNA [5]; intraperitoneal injection 30 mg/kg daily 2 weeks, calvaria, primer-probe set 1207): 24%
- % Inhibition of RANKL (RANKL mRNA [5]; intraperitoneal injection 30 mg/kg daily 2 weeks, proximal tibia, primer-probe set 1015): 0%
- % Inhibition of RANKL (RANKL mRNA [5]; intraperitoneal injection 30 mg/kg daily 2 weeks, proximal tibia, primer-probe set 1207): 0%
- % Inhibition of RANKL (RANKL mRNA [5]; intraperitoneal injection 50 mg/kg daily 2 weeks, calvaria, primer-probe set 1015): 51%
- % Inhibition of RANKL (RANKL mRNA [5]; intraperitoneal injection 50 mg/kg daily 2 weeks, calvaria, primer-probe set 1207): 54%
- % Inhibition of RANKL (RANKL mRNA [5]; intraperitoneal injection 50 mg/kg daily 2 weeks, proximal tibia, primer-probe set 1015): 21%
- % Inhibition of RANKL (RANKL mRNA [5]; intraperitoneal injection 50 mg/kg daily 2 weeks, proximal tibia, primer-probe set 1207): 13%
- inhibition of PTH-induced increase in RANKL mRNA expression in the proximal tibia and calvaria (RANKL mRNA [5]; mice, 2 weeks daily s.c. 30 or 50 mg/kg or i.p. 15, 30 or 50 mg/kg, 24 hours PTH infusion): capable of inhibiting the PTH-induced increase in RANKL mRNA expression; also recorded: greater inhibition observed in the calvaria
- % Inhibition of RANKL (RANKL mRNA [5]; subcutaneous injection 30 mg/kg daily 2 weeks, calvaria, primer-probe set 1015): 38%
- % Inhibition of RANKL (RANKL mRNA [5]; subcutaneous injection 30 mg/kg daily 2 weeks, calvaria, primer-probe set 1207): 38%
- % Inhibition of RANKL (RANKL mRNA [5]; subcutaneous injection 30 mg/kg daily 2 weeks, proximal tibia, primer-probe set 1015): 5%
- % Inhibition of RANKL (RANKL mRNA [5]; subcutaneous injection 30 mg/kg daily 2 weeks, proximal tibia, primer-probe set 1207): 10%
- % Inhibition of RANKL (RANKL mRNA [5]; subcutaneous injection 50 mg/kg daily 2 weeks, calvaria, primer-probe set 1015): 60%
- % Inhibition of RANKL (RANKL mRNA [5]; subcutaneous injection 50 mg/kg daily 2 weeks, calvaria, primer-probe set 1207): 52%
- % Inhibition of RANKL (RANKL mRNA [5]; subcutaneous injection 50 mg/kg daily 2 weeks, proximal tibia, primer-probe set 1015): 32%
- % Inhibition of RANKL (RANKL mRNA [5]; subcutaneous injection 50 mg/kg daily 2 weeks, proximal tibia, primer-probe set 1207): 36%
- % INHIB (inhibition of mouse RANKL mRNA levels) (mouse RANKL mRNA [3]): at least 40%
- RANKL mRNA, % inhib (RANKL mRNA [6]; [8]): 0 % inhib
- RANKL mRNA, % inhib (RANKL mRNA [6]; [9]): 0 % inhib
- RANKL mRNA, % inhib (RANKL mRNA [6]; [10]): 0 % inhib
- inhibition of PTH-induced increase in RANKL mRNA expression (RANKL mRNA [2]; primary mouse osteoblast cells, 63 nM, 125 nM, 250 nM, or 500 nM, 24 hours, FuGENE 6, 10 nM PTH last 2 hours): able to inhibit the PTH-induced increase in RANKL mRNA expression
- serum calcium [7, 8]: 21 mg/dL
- serum calcium [7, 9]: 17 mg/dL
- serum calcium [7, 10]: 19 mg/dL
- PTH-induced increase in serum calcium concentration ([7]; mice, s.c. two weeks 5, 15, 30 or 40 mg/kg, 24 hours PTH infusion): lessen the PTH-induced increase in serum calcium concentration

From patent publication US20050060764A1, “Mouse model for bone metabolism” (priority 2003, published 2005)
